Reference: US20230091225A1, “Bifunctional chimeric heterocyclic compounds for targeted degradation of androgen receptors and use thereof” (HINOVA PHARMACEUTICALS INC., priority 2019, published 2023)
Like-named read-outs stand apart in the source and are kept apart here.

Molecular target: T1, androgen receptor (AR) (Homo sapiens, UniProt P10275)
T1 sequence (P10275 1-920): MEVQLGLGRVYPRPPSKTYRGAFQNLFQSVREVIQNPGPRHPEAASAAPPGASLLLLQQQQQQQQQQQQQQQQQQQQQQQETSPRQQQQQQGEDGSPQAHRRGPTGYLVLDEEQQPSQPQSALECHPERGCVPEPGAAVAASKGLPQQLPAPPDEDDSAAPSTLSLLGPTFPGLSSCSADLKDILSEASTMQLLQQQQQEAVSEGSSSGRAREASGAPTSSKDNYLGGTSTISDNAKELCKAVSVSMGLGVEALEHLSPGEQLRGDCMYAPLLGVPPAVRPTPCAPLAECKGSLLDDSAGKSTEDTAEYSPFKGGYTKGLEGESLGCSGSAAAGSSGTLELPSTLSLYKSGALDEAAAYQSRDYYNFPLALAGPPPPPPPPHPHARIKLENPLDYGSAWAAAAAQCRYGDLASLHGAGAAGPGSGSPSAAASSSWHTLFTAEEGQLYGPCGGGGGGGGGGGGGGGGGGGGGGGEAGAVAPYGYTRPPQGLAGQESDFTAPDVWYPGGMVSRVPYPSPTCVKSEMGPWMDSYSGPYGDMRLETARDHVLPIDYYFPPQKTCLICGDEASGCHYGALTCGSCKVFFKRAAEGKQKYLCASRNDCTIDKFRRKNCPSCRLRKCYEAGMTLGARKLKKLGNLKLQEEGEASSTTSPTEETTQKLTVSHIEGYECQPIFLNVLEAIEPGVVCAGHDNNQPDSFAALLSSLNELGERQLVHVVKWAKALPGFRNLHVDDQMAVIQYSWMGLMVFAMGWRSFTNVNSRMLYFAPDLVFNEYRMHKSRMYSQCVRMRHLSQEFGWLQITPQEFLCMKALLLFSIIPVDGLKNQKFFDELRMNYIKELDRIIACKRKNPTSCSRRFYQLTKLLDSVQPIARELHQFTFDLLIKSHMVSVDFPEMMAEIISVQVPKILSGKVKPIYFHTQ
Assay: Degradation of androgen receptor (AR) protein in VCaP cells by ELISA
Format: cell-based
Details: for DC50: read-out: DC50; for Dmax: VCaP; for inhibition at 0.1 µM: percentage of degraded AR at 100 nM, read-out: % degradation

[1] = AR degradation, VCaP cells, 16 h, ELISA, Table 3-1
[2] = AR degradation, VCaP cells, 16 h, ELISA, Table 3-1, read-out: Dmax (%)

DC50 [1] | Dmax [2] | Compound | further results
< 10 nM | > 80% | N#Cc1ccc(O[C@H]2CC[C@H](NC(=O)c3cnc(N4CCC5(CC4)CN(CC4CCN(c6cc7c(cc6F)C(=O)N(C6CCC(=O)NC6=O)C7=O)CC4)C5)cn3)CC2)cc1Cl (stereo partly drawn) [Compound 76] | 
< 10 nM | > 80% | N#Cc1ccc(O[C@H]2CC[C@H](NC(=O)c3ccc(N4CCC(N5CC6(CCN(c7cc8c(cc7F)C(=O)N(C7CCC(=O)NC7=O)C8=O)CC6)C5)CC4)nc3)CC2)cc1Cl (stereo partly drawn) [Compound 77, N-((1r,4r)-4-(3-chloro-4-cyanophenoxy)cyclohexyl)-6-(4-(7-(2-(2,6-dioxopiperidin-3-yl)-6-fluoro-1,3-dioxoisoindolin-5-yl)-2,7-diazaspiro[3.5]nonan-2-yl)piperidin-1-yl)nicotinamide] | 
< 10 nM | > 80% | N#Cc1ccc(O[C@H]2CC[C@H](NC(=O)c3ccc(N4CCC(N5CC6(CCN(c7ccc8c(c7)C(=O)N(C7CCC(=O)NC7=O)C8=O)CC6)C5)CC4)nn3)CC2)cc1Cl (stereo partly drawn) [Compound 78] | 
10 to 100 nM | > 80% | N#Cc1ccc(O[C@H]2CC[C@H](NC(=O)c3ccc(N4CCC(N5CC6(CCN(c7cc8c(cc7F)C(=O)N(C7CCC(=O)NC7=O)C8=O)CC6)C5)CC4)nn3)CC2)cc1C(F)(F)F (stereo partly drawn) [Compound 79, N-((1r,4r)-4-(4-cyano-3-(trifluoromethyl)phenoxy)cyclohexyl)-6-(4-(7-(2-(2,6-dioxopiperidin-3-yl)-6-fluoro-1,3-dioxoisoindolin-5-yl)-2,7-diazaspiro[3.5]nonan-2-yl)piperidin-1-yl)pyridazine-3-formamide] | 
< 10 nM |  | N#Cc1ccc(OC2CCC(NC(=O)c3ncn(C4CCC(CN5CCC6(CC5)CN(c5ccc7c(c5)C(=O)N(C5CCC(=O)NC5=O)C7=O)C6)CC4)n3)CC2)cc1Cl [Compound 84, N-((1r,4R)-4-(3-chloro-4-cyanophenoxy)cyclohexyl)-1-(1r,4R)-4-((2-(2-(2,6-dioxopiperidin-3-yl)-1,3-dioxoisoindolin-5-yl)-2,7-diazaspiro[3.5]nonan-7-yl)methyl)cyclohexyl)-1H-1,2,4-triazole-3-carboxamide] | Dmax (%) [1]: ++++ (>80%)
10 to 100 nM |  | N#Cc1ccc(OC2CCC(NC(=O)c3ncn(C4CCC(CN5CCC6(CC5)CN(c5cc7c(cc5F)C(=O)N(C5CCC(=O)NC5=O)C7=O)C6)CC4)n3)CC2)cc1Cl [Compound 85, N-((1r,4R)-4-(3-chloro-4-cyanophenoxy)cyclohexyl)-1-((1r,4R)-4-((2-(2,6-dioxopiperidin-3-yl)-6-fluoro-1,3-dioxoisoindolin-5-yl)-2,7-diazaspiro[3.5]nonan-7-yl)methyl)cyclohexyl)-1H-1,2,4-triazole-3-formamide] | Dmax (%) [1]: ++++ (>80%)

More lines, now with the values behind:

Compound | DC50 [1] | Dmax [2] | further results
4-((1r,3r)-3-(2-((1r,4r)-4-(4-(2,6-dioxopiperidin-3-yl)-1,3-dioxoisoindolin-5-yl)piperazin-1-2-methoxybenzonitrile [Compound 400] |  |  | Dmax (%): ++++ (key: A: >80%; B: 79%-50%; C: 49%-25%; D: <25%); DC50: < 10 nM
CC1(C)[C@H](Oc2ccc(C#N)c(Cl)c2)C(C)(C)[C@H]1N1Cc2nc(C#CC3CCC(N4CC5CC4CN5c4ccc5c(c4)C(=O)N(C4CCC(=O)NC4=O)C5=O)CC3)ccc2C1=O (single isomer, unassigned) [Compound 352, 2-Chloro-4-((1r,3r)-3-(2-((4-(5-(2-(2,6-dioxopiperidin-3-yl)-1,3-dioxoisoindolin-5-yl)-2,5-diazabicyclo[2.2.1]heptan-2-yl)cyclohexyl)ethynyl)-5-oxo-5,7-dihydro-6H-pyrrolo[3,4-b]pyridin-6-yl)-2,2,4,4-tetramethylcyclobutoxy) benzonitrile] | > 300 nM | 40 to 60% | 
CC1(C)[C@H](Oc2ccc(C#N)c(Cl)c2)C(C)(C)[C@H]1N1Cc2nc(C#CC3CCC(N4CC5CC4CN5c4ccc5c(c4)C(=O)N(C4CCC(=O)NC4=O)C5=O)CC3)ccc2C1=O (single isomer, unassigned) [Compound 353, 2-Chloro-4-((1r,3r)-3-(2-((4-(5-(2-(2,6-dioxopiperidin-3-yl)-1,3-dioxoisoindolin-5-yl)-2,5-diazabicyclo[2.2.1]heptan-2-yl)cyclohexyl)ethynyl)-5-oxo-5,7-dihydro-6H-pyrrolo[3,4-b]pyridin-6-yl)-2,2,4,4-tetramethylcyclobutoxy) benzonitrile] | > 300 nM |  | 
CC(=O)O[C@@H]1CC(C(=O)N[C@@H](C)c2ccc(-c3scnc3C)cc2)N(C(=O)[C@@H](NC(=O)COCCN2CCN(c3ccc4c(c3)CN([C@H]3C(C)(C)[C@H](Oc5ccc(C#N)c(Cl)c5)C3(C)C)C4=O)CC2)C(C)(C)C)C1 (stereo partly drawn) [Compound 2, (3R,5S)-1-((S)-2-(2-(2-(4-(2-((1R,3R)-3-(3-chloro-4-cyanophenoxy)-2,2,4,4-tetramethylcyclobutyl)-1-oxoisoindolin-5-yl)piperazin-1-yl)ethoxy)acetylamino)-3,3-dimethylbutyryl)-5-(((S)-1-(4-(4-methylthiazol-5-yl)phenyl)ethyl)carbamoyl) pyrrolidin-3-yl acetate] |  |  | inhibition at 0.1 µM (VCaP cells, 16 h, ELISA): < 25%
CC(=O)O[C@@H]1C[C@H](C(=O)NC2(c3ccc(-c4scnc4C)cc3)CC2)N(C(=O)[C@@H](NC(=O)COCCCCC#Cc2ccc(C(=O)N[C@H]3C(C)(C)[C@H](Oc4ccc(C#N)c(Br)c4)C3(C)C)cc2)C(C)(C)C)C1 [Compound 8, (3R,5R)-1-((S)-2-(2-((6-(4-(((1R,3R)-3-(3-bromo-4-cyanophenoxy)-2,2,4,4-tetramethylcyclobutyl)carbamoyl)phenyl)hex-5-yn-1-yl)oxy)acetylamino)-3,3-dimethylbutyryl)-5-((1-(4-(4-methylthiazol-5-yl)phenyl)cyclopropyl)carbamoyl) pyrrolidin-3-yl acetate] |  |  | inhibition at 0.1 µM (VCaP cells, 16 h, ELISA): 25 to 49%
Cc1ncsc1-c1ccc([C@H](C)NC(=O)[C@@H]2C[C@@H](O)CN2C(=O)[C@@H](NC(=O)COCCCCC#Cc2ccc3c(n2)CN([C@H]2C(C)(C)[C@H](Oc4ccc(C#N)c(Cl)c4)C2(C)C)C3=O)C(C)(C)C)cc1 [Compound 36, (2S,4R)-1-((S)-2-(2-((6-(6-((1r,3r)-3-(3-chloro-4-cyanophenoxy)-2,2,4,4-tetramethylcyclobutyl)-5-oxo-6,7-dihydro-5H-pyrrolo[3,4-b]pyridin-2-yl)hex-5-yn-1-yl)oxy)acetylamino)-3,3-dimethylbutyryl)-4-hydroxy-N-((S)-1-(4-(4-methylthiazol-5-yl)phenyl)ethyl)pyrrolidine-2-carboxamide] |  |  | inhibition at 0.1 µM (VCaP cells, 16 h, ELISA): 25 to 49%
N#Cc1ccc(O[C@H]2CC[C@H](NC(=O)c3ccc(N4CCC5(CC4)CN(CC4CCN(c6cc7c(cc6F)C(=O)N(C6CCC(=O)NC6=O)C7=O)CC4)C5)nn3)CC2)cc1Cl (stereo partly drawn) [Compound 75] | < 10 nM | > 80% | 
CC1(C)C(NC(=O)c2ccc(N3CCC(N4CC5(CCN(c6cc7c(cc6F)C(=O)N(C6CCC(=O)NC6=O)C7=O)CC5)C4)CC3)nn2)C(C)(C)C1Oc1ccc(C#N)c(Cl)c1 (stereo not drawn) [Compound 80, N-((1s,3s)-3-(3-chloro-4-cyanophenoxy)-2,2,4,4-tetramethylcyclobutyl)-6-(4-(7-(2-(2,6-dioxopiperidin-3-yl)-6-fluoro-1,3-dioxoisoindolin-5-yl)-2,7-diazaspiro [3.5]nonan-2-yl)piperidin-1-yl)pyridazine-3-formamide] |  |  | Dmax (%): +++ (key: ++++: >80%; +++: 80%-60%; ++: 60%-40%; +: <40%); DC50: 10 to 100 nM
N#Cc1ccc(O[C@H]2CC[C@H](NC(=O)c3ccc(N4CC5(CCN(C6CCN(c7cc8c(cc7F)C(=O)N(C7CCC(=O)NC7=O)C8=O)CC6)C5)C4)nn3)CC2)cc1Cl (stereo partly drawn) [Compound 81, N-((1r,4r)-4-(3-chloro-4-cyanophenoxy)cyclohexyl)-6-(6-(1-(2-(2,6-dioxopiperidin-3-yl)-6-fluoro-1,3-dioxoisoindolin-5-yl)piperidine-4-yl)-2,6-diazaspiro[3.4]octan-2-yl)pyridazine-3-formamide] | < 10 nM |  | Dmax: > 80%
N#Cc1ccc(O[C@H]2CC[C@H](NC(=O)c3cnc(N4CC5(CCN(C6CCN(c7cc8c(cc7F)C(=O)N(C7CCC(=O)NC7=O)C8=O)CC6)C5)C4)cn3)CC2)cc1Cl (stereo partly drawn) [Compound 82, N-((1r,4r)-4-(3-chloro-4-cyanophenoxy)cyclohexyl)-5-(6-(1-(2-(2,6-dioxopiperidin-3-yl)-6-fluoro-1,3-dioxoisoindolin-5-yl)piperidine-4-yl)-2,6-diazaspiro [3.4]octane-2-yl)pyrazine-2-carboxamide] | < 10 nM |  | Dmax: > 80%
N#Cc1ccc(O[C@H]2CC[C@H](NC(=O)c3nnc(N4CCC(N5CCC6(CC5)CN(c5cc7c(cc5F)C(=O)N(C5CCC(=O)NC5=O)C7=O)C6)CC4)s3)CC2)cc1Cl (stereo partly drawn) [Compound 83] | > 300 nM |  | Dmax: < 40%
